Data: patent US4652586A, “Selective beta-2 adrenergic antagonists for the treatment of glaucoma” (priority 1980, dated 1987)
pKd, pKi: −log10 of the molar value. Entries after “also recorded” stand apart in the source; their conditions may differ. Counter-ions that a name gives are not always drawn. Like-named read-outs stand apart in the source and are kept apart here.

How the values were obtained:
[1] = molecular target: T1, rabbit ciliary process adenylate cyclase (beta2-adrenergic receptors) (Oryctolagus cuniculus, UniProt G1TAV7); test: rabbit ciliary process isoproterenol-stimulated adenylate cyclase; format: biochemical; conditions: Table III; rabbit ciliary process, isoproterenol-stimulated
T1 construct: Homogenates or washed particulate preparations (10 mg/ml) in 6 mM Tris-maleate, pH 7.4, are prepared from the various tissues to be studied; from tissue; host or cells: rabbit ciliary process
T1 sequence (G1TAV7 1-437): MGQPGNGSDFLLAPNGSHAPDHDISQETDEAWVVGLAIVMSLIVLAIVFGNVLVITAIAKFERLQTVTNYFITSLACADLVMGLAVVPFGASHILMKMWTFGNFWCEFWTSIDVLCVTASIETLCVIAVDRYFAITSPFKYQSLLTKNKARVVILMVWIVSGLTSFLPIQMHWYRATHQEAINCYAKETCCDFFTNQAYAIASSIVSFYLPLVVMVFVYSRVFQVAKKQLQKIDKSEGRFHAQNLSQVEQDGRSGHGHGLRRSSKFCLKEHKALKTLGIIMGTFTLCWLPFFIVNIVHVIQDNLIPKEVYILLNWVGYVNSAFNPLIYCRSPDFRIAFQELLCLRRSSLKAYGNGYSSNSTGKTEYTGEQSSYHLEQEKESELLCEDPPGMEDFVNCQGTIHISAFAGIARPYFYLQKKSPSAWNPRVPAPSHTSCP

heart adenylate cyclase = conditions: Table I, data from Minneman et al, cited from earlier work; for pKi: antagonists, read-out: Adenylate Cyclase Ki, Heart (G)
[2] = tested on: rabbit ciliary process adenylate cyclase (beta2-adrenergic receptors); test: rabbit ciliary process isoproterenol-stimulated adenylate cyclase; format: biochemical; conditions: for Ki heart / Ki Ciliary Process = beta2/beta1 potency ratio: Table III, rabbit heart vs rabbit ciliary process, ±20%
[3] = molecular target: rabbit heart isoproterenol-stimulated adenylate cyclase; test: rabbit heart isoproterenol-stimulated adenylate cyclase; format: biochemical
adult female cats = conditions: Colasanti and Trotter 1979; cited from earlier work
[4] = molecular target: beta1-adrenergic receptor present in mammalian heart; conditions: Table I; data from Minneman et al; read-out: Kd for IHYP Binding, Heart (E); cited from earlier work
rabbit eyes = test: intraocular pressure in normal rabbit eyes after topical application; conditions: for IOP in the contralateral eye: 0.5% topical to ipsilateral eye, presumably systemic absorption; for IOP in ipsilateral eyes compared to predrug readings: two 50 microliter doses, normal rabbit, FIG. 2
iris adenylate cyclase = iris adenylate cyclase stimulation; format: biochemical
From the text: (§1) The discovery that the ciliary process of the mammalian eye contains β2 -adrenergic receptors is based on the technique of measuring adenylate cyclase, an enzyme which synthesizes cyclic AMP from ATP. It has been established that receptor binding of beta adrenergic agonists is associated with a concomitant activation of adenylate cyclase. (Robison, G. A., et al, Cyclic AMP, Academic Press, New York, 1971, and Wolfe, B. B., et al, Annual Reviews of Pharmacology and Toxicology, 17:575-604 (1977)). […] Beta adrenergic sensitive adenylate cyclase activity was thus identified and characterized in the ocular tissues of several mammalian species such as rabbits, cats, dogs, monkeys and humans. After isolation of the ciliary process, adenylate cyclase activity was measured, and its activation by agonists or inhibition by antagonists was measured. […].
(§2) For ciliary body, maximal stimulation was 15% of the stimulation seen in the ciliary process, and for iris, maximal stimulation was 22% for that seen in the ciliary process. […];

[5] = tested on: ciliary body adenylate cyclase; test: ciliary body adenylate cyclase stimulation; format: biochemical
From the text: as §1, §2

[6] = Table III, rabbit heart, isoproterenol-stimulated, read-out: Adenylate Cyclase Ki, Heart

Structure (SMILES): CC(C)NCC(O)COc1ccc(CC(N)=O)cc1 (stereo not drawn) [Atenolol, atenolol]
- pKi [1]: 4.96

Structure (SMILES): COc1ccc(OC)c(C(O)C(C)NC(C)(C)C)c1 (stereo not drawn) [Butoxamine]
- pKi (heart adenylate cyclase): 5.02
- pKi [1]: 5.85
- β2/β1 potency ratio (Ki heart/Ki ciliary process) ([2]; Table II, from Table I, accurate to ±20%): 1.50
- Ki heart / Ki Ciliary Process = beta2/beta1 potency ratio [2]: 6.8
- pKi [3, 6]: 5.02

Structure (SMILES): CNC[C@H](O)c1ccc(O)c(O)c1 [Epinephrine]
- Adenylate Cyclase Ka, Heart (G) (heart adenylate cyclase; agonists, NE = no effect as agonist): 1.5 µM

Structure (SMILES): Cc1ccc(C(O)C(C)NC(C)C)cc1 (stereo not drawn) [H35/25, (1(4'-methyl phenyl)-2-isopropylaminopropanol)]
- pKi (heart adenylate cyclase): 5.15
- maximal reduction of intraocular tension (adult female cats): about the same maximal reduction as timolol
- pKi [1]: 6.10
- Ki heart / Ki Ciliary Process = beta2/beta1 potency ratio [2]: 8.8
- β2/β1 potency ratio (Ki heart/Ki ciliary process) ([2]; rabbit, heart vs ciliary process): 3.1
- pKi [3, 6]: 5.15
- pKd [4]: 5.71

Structure (SMILES): CC(C)(C)NCC(O)CON=C1c2ccccc2-c2ccccc21 (stereo not drawn) [IPS 339, (t-butyl-amino 3-ol-2-propyl)oximino-9 fluorene, hydrochloride]
- IOP in the contralateral eye (rabbit eyes): significant decrease in IOP in the contralateral eye
- IOP in ipsilateral eyes compared to predrug readings (rabbit eyes; 0.5% topical): significant decrease in IOP in ipsilateral eyes at 2 and 3 hours after application
- extent of IOP decrease, IPS 339 compared with timolol (rabbit eyes; 0.5% topical, at 3 hours): significantly more than that caused by timolol
- magnitude of contralateral IOP effect (rabbit eyes; 0.5% topical, compared with timolol): somewhat less for IPS 339 than for timolol
- pKi ([3]; Table I, footnote ++ present invention, read-out: Adenylate Cyclase Ki, Heart (G)): 6.08
- pKi [3, 6]: 6.08

Structure (SMILES): CC(C)NCC(O)c1ccc(O)c(O)c1 (stereo not drawn) [Isoproterenol, isoproterenol]
- maximal stimulation, iris (iris adenylate cyclase): 22 % for that seen in the ciliary process
- maximal stimulation, ciliary body [5]: 15 % of the stimulation seen in the ciliary process

Structure (SMILES): CC(=O)Nc1ccc(OCC(O)CNC(C)C)cc1 (stereo not drawn) [Practolol, practolol]
- pKi (heart adenylate cyclase): 5.17
- pKi [1]: 4.68
- pKi [3, 6]: 5.17

Structure (SMILES): CC(C)(C)NC[C@H](O)COc1nsnc1N1CCOCC1 [Timolol, timolol]
- pKi (heart adenylate cyclase): 7.80
- IOP in the contralateral eye (rabbit eyes): significant decrease in IOP in the contralateral eye
- IOP in ipsilateral eyes compared to predrug readings (rabbit eyes; 0.5% topical): significant decrease in IOP in ipsilateral eyes at 2 and 3 hours after application; also recorded: significant decrease at 1 hour
- pKi [1]: 8.35
- pKi [3, 6]: 7.80
